A short description of assay [1]: Concentration required for inhibition of human homologous Disulphide oxidoreductase (hGR) in the presence of GSSG as substrate.
The target in assay [2] is Trypanothione reductase (Trypanosoma cruzi, UniProt P28593). Description: Concentration required for inhibition of Trypanothione reductase (TcTR) from Trypanosoma cruzi in the presence of 50 uM TS2 as substrate.
In assay [3] the target is Trypanothione reductase (Trypanosoma cruzi) (UniProt P28593). Description: Percentage inhibition of Trypanothione reductase at 25 uM in the presence of 200 uM DTNBA as substrate.
Sequence of Trypanothione reductase (Trypanosoma cruzi) (P28593 whole entry, looked up): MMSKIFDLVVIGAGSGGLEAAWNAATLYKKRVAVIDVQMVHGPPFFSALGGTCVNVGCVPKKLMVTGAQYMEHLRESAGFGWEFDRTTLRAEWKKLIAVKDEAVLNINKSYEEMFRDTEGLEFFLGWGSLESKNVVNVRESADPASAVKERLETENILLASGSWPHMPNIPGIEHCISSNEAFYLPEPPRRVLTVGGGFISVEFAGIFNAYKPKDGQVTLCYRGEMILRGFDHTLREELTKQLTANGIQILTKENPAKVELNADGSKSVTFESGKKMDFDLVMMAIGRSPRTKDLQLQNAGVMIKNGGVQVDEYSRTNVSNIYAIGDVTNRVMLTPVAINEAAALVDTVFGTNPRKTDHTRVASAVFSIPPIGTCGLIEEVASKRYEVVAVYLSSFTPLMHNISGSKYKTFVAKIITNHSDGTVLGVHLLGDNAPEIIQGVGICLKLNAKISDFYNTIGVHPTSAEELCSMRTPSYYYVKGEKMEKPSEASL
Assay [4] is described as follows: Concentration required for inhibition of human homologous Disulphide oxidoreductase (hGR).

Sequence of Trypanothione reductase (P28593 whole entry): as the sequence (P28593 whole entry, looked up) above

In the case of `CC1=C(CCCCC(=O)NCCCNCCCNC(=O)CCCCC2=C(C)C(=O)c3cccc(O)c3C2=O)C(=O)c2c(O)cccc2C1=O`, the IC50 worked out at 10 µM in assay [1] and 0.5 µM in assay [2]. For the same molecule, the inhibition in assay [3] was 79%.

As for `CCCCN(CCCC)CCCNC(=O)CCCCC1=C(C)C(=O)c2ccccc2C1=O`, the IC50 in assay [1] is over 50 µM; in assay [2] it was 1.1 µM. Also, in assay [3], the inhibition stood at 86%.

`CCCCN(CCCC)CCCNC(=O)CCCCC1=C(CCCCC(=O)NCCCN(CCCC)CCCC)C(=O)c2c(O)cccc2C1=O`: the IC50 in assay [1] is over 50 µM; in assay [2] it was 0.6 µM. Further, in assay [3], the inhibition came to 81%.

As to `CC1=CC(=O)c2ccccc2C1=O` [MENADIONE], the IC50 in assay [4] is 63 µM; in assay [2], 55 µM.

In the case of `CC1=CC(=O)c2c(O)cccc2C1=O` [PLUMBAGIN], the values for the IC50 in assay [4] and in assay [2] were 38 µM and 28 µM, respectively.

For the molecule `CCCCN(CCCC)CCCNC(=O)CCCCC1=C(C)C(=O)c2cccc(O)c2C1=O`, the IC50 came to 41 µM in assay [1] and 0.3 µM in assay [2]. Besides, in assay [3], the inhibition worked out at 88%.

Usually IC50 stands for the concentration at which inhibition is half-maximal. In general, inhibition refers to the relative decrease from the control value, in per cent.
